These results are taken from US10836763B2, “5 to 7 membered heterocyclic amides as JAK inhibitors” (priority 2018, dated 2020).

The structures appear in SMILES notation. Where two headings read alike, the source gives them in different places.

For one assay, the target named is JAK1 (Homo sapiens (Human), UniProt P23458). Kind of assay: Biochemical JAK kinase assay (LanthaScreen), JAK1. The method, then: (§1) Assay 1: Biochemical JAK Kinase Assays
(§2) A panel of four LanthaScreen JAK biochemical assays (JAK1, 2, 3 and Tyk2) were carried in a common kinase reaction buffer (50 mM HEPES, pH 7.5, 0.01% Brij-35, 10 mM MgCl2, and 1 mM EGTA). Recombinant GST-tagged JAK enzymes and a GFP-tagged STAT1 peptide substrate were obtained from Life Technologies.
(§3) Serially diluted compounds were pre-incubated with each of the four JAK enzymes and the substrate in white 384-well microplates (Corning) at ambient temperature for 1 h. ATP was subsequently added to initiate the kinase reactions in 10 μL total volume, with 1% DMSO. […] Kinase reactions were allowed to proceed for 1 hour at ambient temperature before a 10 μL preparation of EDTA (10 mM final concentration) and Tb-anti-pSTAT1 (pTyr701) antibody (Life Technologies, 2 nM final concentration) in TR-FRET dilution buffer (Life Technologies) was added. The plates were allowed to incubate at ambient temperature for 1 h before being read on the EnVision reader (Perkin Elmer). Emission ratio signals (520 nm/495 nm) were recorded and utilized to calculate the percent inhibition values based on DMSO and background controls.
(§4) For dose-response analysis, percent inhibition data were plotted vs. compound concentrations, and IC50 values were determined from a 4-parameter robust fit model with the Prism software (GraphPad Software). Results were expressed as pIC50 (negative logarithm of IC50) and subsequently converted to pKi (negative logarithm of dissociation constant, Ki) using the Cheng-Prusoff equation.
(In general: TR-FRET usually uses a lanthanide donor and a delayed reading to cut background.)

Assay [1] concerns IL-2 stimulated STAT5 phosphorylation in Tall-1 human T cell line. Kind of assay: Inhibition of IL-2 stimulated pSTAT5 in Tall-1 T cells. Type of assay: cell-based. The conditions noted are these: TALL-1, 0.5 h, read-out: Tall-1 pIC50 (converted). As for the experimental part: Assay 2: Inhibition of IL-2 Stimulated pSTAT5 in Tall-1 T Cells
The potency of test compounds for inhibition of interleukin-2 (IL-2) stimulated STAT5 phosphorylation was measured in the Tall-1 human T cell line (DSMZ) using AlphaLisa.
Phosphorylated STAT5 was measured via the AlphaLISA SureFire Ultra pSTAT5 (Tyr694/699) kit (PerkinElmer).
Compounds were serially diluted in DMSO and dispensed acoustically to empty wells. Assay media (phenol red-free DMEM (Life Technologies) supplemented with 10% FBS (ATCC)) was dispensed (4 μL/well) and plates shaken at 900 rpm for 10 mins. Cells were seeded at 45,000 cells/well in assay media (4 μL/well), and incubated at 37° C., 5% CO2 for 1 hour, followed by the addition of IL-2 (R&D Systems; final concentration 300 ng/mL) in pre-warmed assay media (4 μL) for 30 minutes. […] The lysate was shaken at 900 rpm for 10 minutes at room temperature (RT). Phosphorylated STAT5 was measured via the pSTAT5 AlphaLisa kit (PerkinElmer). Freshly prepared acceptor bead mixture was dispensed onto lysate (5 μL) under green filtered <100 lux light. Plates were shaken at 900 rpm for 2 mins, briefly spun down, and incubated for 2 hrs at RT in the dark. Donor beads were dispensed (5 μL) under green filtered <100 lux light. Plates were shaken at 900 rpm for 2 minutes, briefly spun down, and incubated overnight at RT in the dark. Luminescence was measured with excitation at 689 nm and emission at 570 nm using an EnVision plate reader (PerkinElmer) under green filtered <100 lux light.
To determine the inhibitory potency of test compounds in response to IL-2, the average emission intensity of beads bound to pSTAT5 was measured in a human T cell line. IC50 values were determined from analysis of the inhibition curves of signal intensity versus compound concentration. Data are expressed as pIC50 (negative decadic logarithm IC50) values (mean±standard deviation).

In assay [2] the test system is TSLP-evoked TARC release in human peripheral blood mononuclear cells. Kind of assay: Inhibition of TSLP-evoked TARC release in human peripheral blood mononuclear cells. The note with it: read-out: pIC50 ± st. dev., inhibition of TSLP-evoked TARC release (converted). Type of assay: cell-based. An excerpt:
Assay 4: Inhibition of TSLP-Evoked TARC Release in Human Peripheral Blood Mononuclear Cells
Thymic stromal lymphopoietin (TSLP) and thymus and activation-regulated chemokine (TARC) are overexpressed in asthmatic airways, and correlate with disease severity. In the lungs, TSLP may be released by bronchial epithelial cells in response to allergens and viral infections. TSLP signals through an IL-7Rα/TSLPR heterodimer found in a broad range of tissues and cell types, including epithelial cells, endothelial cells, neutrophils, macrophages, and mast cells. The binding of TSLP to its receptor induces a conformational change that activates JAK1 and JAK2 to phosphorylate various transcription factors, including STAT3 and STAT5. In immune cells, this triggers a cascade of intracellular events that result in cell proliferation, anti-apoptosis, dendritic cell migration, and production of Th2 cytokines and chemokines. In peripheral blood mononuclear cells (PBMC), TSLP has a proinflammatory effect by activating myeloid dendritic cells to attract and stimulate T cells, a process mediated by the chemoattractant TARC.
The potencies of the test compounds were measured for inhibition of TARC release.
PBMC aliquots (previously isolated from whole blood and frozen in aliquots at −80° C.) from 3 to 5 donors were thawed at 37° C. and added dropwise to 40 mL pre-warmed, sterile-filtered, complete RPMI media in 50 mL Falcon tubes. Cells were pelleted and resuspended in complete media at 2.24×10^6 cells/mL. Cells were seeded at […] (190,000 cells) per well in a tissue culture treated 96-well flat bottom microplate. Cells were allowed to rest for 1 hour at 37° C. with 5% CO2.
Compounds were received as 10 mM stock solutions in DMSO. 3.7-fold serial dilutions were performed to generate 9 concentrations of test compound in DMSO at 300× the final assay test concentration. […] After the 1 hour rest period, 95 µL of 2× compound was added to each well of PBMC, for a final assay concentration range of 33.33 μM to […]. 95 μL of 0.2% DMSO in complete media was added to the untreated control wells. Cells were pre-treated with compound for 1 hour at 37° C. with 5% CO2 prior to stimulation.
Recombinant human TSLP protein was reconstituted at 10 μg/mL in sterile DPBS with 0.1% BSA and stored in aliquots at −20° C. Immediately prior to use, an aliquot was thawed and prepared at 20× the final assay concentration in complete media. 10 μL of 20×TSLP was added to each well of PBMC, for a final assay concentration of 10 ng/mL. 10 μL of complete media was added to the unstimulated control wells. Cells were stimulated in the presence of compound for 48 hours at 37° C. with 5% CO2.
Following stimulation, the cell culture supernatants were harvested and TARC levels were detected by enzyme-linked immunosorbent assay (ELISA), using Human CCL17/TARC Quantikine ELISA Kit (R&D Systems # DDN00) according to the manufacturer's instructions.
For dose response analysis, the log [test compound (M)] was plotted versus the percent response values for each donor, and IC50 values were determined using a nonlinear regression analysis with GraphPad Prism Software using the 4-parameter sigmoidal dose-response algorithm with variable slope. Data are expressed as mean pIC50 (negative decadic logarithm IC50) values calculated from pIC50 values of individual donors and rounded to one decimal place.

In another assay the target is JAK3 (Homo sapiens (Human), UniProt P52333). Type of assay: biochemical. As for the experimental part: as §1, §2, §3, §4
Sequence of JAK3 (P52333 whole entry): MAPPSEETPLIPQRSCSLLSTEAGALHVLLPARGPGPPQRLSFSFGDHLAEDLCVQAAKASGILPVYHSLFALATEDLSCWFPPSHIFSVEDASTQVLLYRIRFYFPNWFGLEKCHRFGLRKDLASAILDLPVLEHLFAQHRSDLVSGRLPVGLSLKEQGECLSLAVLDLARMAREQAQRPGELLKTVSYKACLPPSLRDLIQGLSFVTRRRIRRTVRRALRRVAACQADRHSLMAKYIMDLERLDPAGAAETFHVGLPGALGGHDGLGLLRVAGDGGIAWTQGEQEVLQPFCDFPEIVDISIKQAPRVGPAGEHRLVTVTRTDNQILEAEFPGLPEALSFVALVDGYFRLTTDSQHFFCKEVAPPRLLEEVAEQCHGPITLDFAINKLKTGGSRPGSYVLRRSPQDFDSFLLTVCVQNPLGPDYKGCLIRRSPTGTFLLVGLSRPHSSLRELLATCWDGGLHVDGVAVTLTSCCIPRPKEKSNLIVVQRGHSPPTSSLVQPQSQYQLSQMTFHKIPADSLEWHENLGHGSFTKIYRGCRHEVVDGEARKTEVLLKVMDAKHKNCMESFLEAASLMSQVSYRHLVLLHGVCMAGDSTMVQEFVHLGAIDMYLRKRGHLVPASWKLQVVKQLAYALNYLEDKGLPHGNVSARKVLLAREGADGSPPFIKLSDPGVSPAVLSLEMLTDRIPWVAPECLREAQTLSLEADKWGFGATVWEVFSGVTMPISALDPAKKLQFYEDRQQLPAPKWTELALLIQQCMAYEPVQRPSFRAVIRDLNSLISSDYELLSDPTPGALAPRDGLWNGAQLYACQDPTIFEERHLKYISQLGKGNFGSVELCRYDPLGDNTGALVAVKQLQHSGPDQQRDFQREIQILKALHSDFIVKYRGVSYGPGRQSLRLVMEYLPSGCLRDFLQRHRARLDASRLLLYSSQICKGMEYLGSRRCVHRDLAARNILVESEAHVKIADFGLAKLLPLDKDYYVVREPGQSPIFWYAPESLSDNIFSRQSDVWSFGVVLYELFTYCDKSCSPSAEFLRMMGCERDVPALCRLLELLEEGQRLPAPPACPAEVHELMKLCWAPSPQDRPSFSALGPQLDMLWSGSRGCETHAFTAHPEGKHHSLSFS
The mark [3] stands for this setting: ATP at Km 25 μM, pIC50 converted with Cheng-Prusoff.
[4] abbreviates: IL-2 300 ng/mL, 30 min, pSTAT5 AlphaLisa.
[5] abbreviates: PBMC from 3 to 5 donors, TSLP 10 ng/mL, 48 hours, TARC ELISA.
The mark [6] stands for this setting: ATP at Km 1.6 μM, pIC50 converted with Cheng-Prusoff.

Sequence of JAK1 (P23458 whole entry): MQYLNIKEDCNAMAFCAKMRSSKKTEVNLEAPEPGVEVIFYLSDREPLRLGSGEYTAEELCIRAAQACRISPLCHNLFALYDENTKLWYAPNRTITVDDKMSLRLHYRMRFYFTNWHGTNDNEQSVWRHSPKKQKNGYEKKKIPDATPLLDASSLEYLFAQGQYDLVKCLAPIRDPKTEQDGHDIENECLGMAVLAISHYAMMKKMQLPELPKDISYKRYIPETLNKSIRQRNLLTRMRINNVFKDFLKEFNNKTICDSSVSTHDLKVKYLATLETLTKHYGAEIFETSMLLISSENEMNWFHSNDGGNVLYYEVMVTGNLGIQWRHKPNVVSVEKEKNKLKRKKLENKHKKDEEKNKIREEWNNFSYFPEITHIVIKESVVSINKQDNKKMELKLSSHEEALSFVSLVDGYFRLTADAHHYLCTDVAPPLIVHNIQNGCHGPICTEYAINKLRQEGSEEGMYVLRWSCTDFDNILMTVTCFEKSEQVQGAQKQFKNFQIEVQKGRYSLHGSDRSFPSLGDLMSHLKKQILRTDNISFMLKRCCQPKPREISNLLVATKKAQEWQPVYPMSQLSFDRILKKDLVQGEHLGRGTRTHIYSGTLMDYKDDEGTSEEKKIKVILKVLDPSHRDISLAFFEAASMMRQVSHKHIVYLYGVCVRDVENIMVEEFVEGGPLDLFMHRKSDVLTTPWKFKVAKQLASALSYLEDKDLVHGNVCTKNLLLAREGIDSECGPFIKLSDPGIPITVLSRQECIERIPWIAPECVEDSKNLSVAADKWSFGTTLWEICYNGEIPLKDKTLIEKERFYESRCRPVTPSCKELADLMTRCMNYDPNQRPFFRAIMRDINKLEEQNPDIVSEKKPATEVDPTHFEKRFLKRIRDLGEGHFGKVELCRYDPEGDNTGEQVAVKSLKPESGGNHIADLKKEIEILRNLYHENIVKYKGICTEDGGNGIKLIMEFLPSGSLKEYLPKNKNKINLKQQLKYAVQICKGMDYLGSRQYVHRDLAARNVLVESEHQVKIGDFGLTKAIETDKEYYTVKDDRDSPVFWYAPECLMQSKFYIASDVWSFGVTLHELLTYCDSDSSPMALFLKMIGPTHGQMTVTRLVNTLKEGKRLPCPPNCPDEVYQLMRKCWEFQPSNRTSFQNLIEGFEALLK

On to `CCCN1Cc2[nH]c(-c3n[nH]c4cc(-c5ccc(O)cc5CC)ccc34)nc2C[C@H]1C(=O)N1CCN(CCO)CC1` [Compound 1, (S)-(2-(6-(2-ethyl-4-hydroxyphenyl)-1H-indazol-3-yl)-5-propyl-4,5,6,7-tetrahydro-3H-imidazo[4,5-c]pyridin-6-yl)(4-(2-hydroxyethyl)piperazin-1-yl)methanone], for which the “JAK1 pKi” value on JAK1 (setting [3]) worked out at 10.2. For the same compound, the results for the IC50 in assay [1] (setting [4]) and in assay [2] (setting [5]) were 1.58 nM and 79.4 nM, respectively. The “JAK3 PKi” value on JAK3 (setting [6]) is given as 9.8.
The matching figures for `CCCN1Cc2[nH]c(-c3n[nH]c4cc(-c5ccc(O)cc5CC)ccc34)nc2C[C@H]1C(=O)N1C[C@@H]2C[C@H]1CN2C` [Compound 2, ((S)-2-(6-(2-ethyl-4-hydroxyphenyl)-1H-indazol-3-yl)-5-propyl-4,5,6,7-tetrahydro-3H-imidazo[4,5-c]pyridin-6-yl)((1S,4S)-5-methyl-2,5-diazabicyclo[2.2.1]heptan-2-yl)methanone]: 10.3, 3.98 nM, 158 nM and 9.8.
For `CCc1cc(O)ccc1-c1ccc2c(-c3nc4c([nH]3)CN(C(C)C)[C@H](C(=O)N3CCCN(C)CC3)C4)n[nH]c2c1` [Compound 4, (S)-(2-(6-(2-ethyl-4-hydroxyphenyl)-1H-indazol-3-yl)-5-isopropyl-4,5,6,7-tetrahydro-3H-imidazo[4,5-c]pyridin-6-yl)(4-methyl-1,4-diazepan-1-yl)methanone], at JAK1, the “JAK1 pKi” value came to 10.1. The IC50 in assay [1] was 2.51 nM; in assay [2] (PBMC, 48 h) it was 158 nM. The “JAK3 PKi” value on JAK3 was 10.1.
Take `CCc1cc(O)ccc1-c1ccc2c(-c3nc4c([nH]3)CN(C)[C@H](C(=O)N3CCN(CCO)C[C@H]3C)C4)n[nH]c2c1` [Compound 5, ((S)-2-(6-(2-ethyl-4-hydroxyphenyl)-1H-indazol-3-yl)-5-methyl-4,5,6,7-tetrahydro-3H-imidazo[4,5-c]pyridin-6-yl)((R)-4-(2-hydroxyethyl)-2-methylpiperazin-1-yl)methanone]: the “JAK1 pKi” value at JAK1 is 10.3. The IC50 in assay [1] is 1.58 nM; in assay [2] (PBMC, 48 h), 31.6 nM. Moreover, the “JAK3 PKi” value on JAK3 is recorded as 10.1.
On the same counts, the results for `CCc1cc(O)ccc1-c1ccc2c(-c3nc4c([nH]3)CN(C(C)C)[C@H](C(=O)N3CC[C@H](N(C)C)C3)C4)n[nH]c2c1` [Compound 6, ((S)-3-(dimethylamino)pyrrolidin-1-yl)((S)-2-(6-(2-ethyl-4-hydroxyphenyl)-1H-indazol-3-yl)-5-isopropyl-4,5,6,7-tetrahydro-3H-imidazo[4,5-c]pyridin-6-yl)methanone] are 10.2, 2 nM, 158 nM and 10.0.
Take `CCCN1Cc2[nH]c(-c3n[nH]c4cc(-c5cc(F)c(O)cc5CC)ccc34)nc2C[C@H]1C(=O)N1CCN(CCO)CC1` [Compound C-1, (S)-(2-(6-(2-ethyl-5-fluoro-4-hydroxyphenyl)-1H-indazol-3-yl)-5-propyl-4,5,6,7-tetrahydro-3H-imidazo[4,5-c]pyridin-6-yl)(4-(2-hydroxyethyl)piperazin-1-yl)methanone, reference compound]: the “JAK1 pKi” value at JAK1 (setting [3]) stood at 10.2. For the same compound, the results for the IC50 in assay [1] (setting [4]) and in assay [2] (setting [5]) were 2 nM and 100 nM, respectively. Also, the “JAK3 PKi” value at JAK3 was found to be 9.7.
On the same counts, the results for `CCCN1Cc2[nH]c(-c3n[nH]c4cc(-c5cc(F)c(O)cc5CC)ccc34)nc2C[C@H]1C(=O)N1C[C@@H]2C[C@H]1CN2C` [Compound C-2, ((S)-2-(6-(2-ethyl-5-fluoro-4-hydroxyphenyl)-1H-indazol-3-yl)-5-propyl-4,5,6,7-tetrahydro-3H-imidazo[4,5-c]pyridin-6-yl)((1S,4S)-5-methyl-2,5-diazabicyclo-[2.2.1]heptan-2-yl)methanone, reference compound] are 10.3, 2.51 nM, 251 nM and 9.9.
As for `CCc1cc(O)c(F)cc1-c1ccc2c(-c3nc4c([nH]3)CN(C)[C@H](C(=O)N3CCN(C)C[C@@H]3C)C4)n[nH]c2c1` [Compound C-3, ((S)-2,4-dimethylpiperazin-1-yl)((S)-2-(6-(2-ethyl-5-fluoro-4-hydroxyphenyl)-1H-indazol-3-yl)-5-methyl-4,5,6,7-tetrahydro-3H-imidazo[4,5-c]pyridin-6-yl)methanone, reference compound], the values for the IC50 in assay [1] (setting [4]) and in assay [2] (setting [5]) were 2 nM and 100 nM, respectively. For the same compound, the “JAK3 PKi” value at JAK3 was determined as 9.7.
Turning to `CCc1cc(O)c(F)cc1-c1ccc2c(-c3nc4c([nH]3)CN(C(C)C)[C@H](C(=O)N3CCCN(C)CC3)C4)n[nH]c2c1` [Compound C-4, (S)-(2-(6-(2-ethyl-5-fluoro-4-hydroxyphenyl)-1H-indazol-3-yl)-5-isopropyl-4,5,6,7-tetrahydro-3H-imidazo[4,5-c]pyridin-6-yl)(4-methyl-1,4-diazepan-1-yl)methanone, reference compound], the “JAK1 pKi” value at JAK1 (setting [3]) is 10.0. The figures for the IC50 in assay [1] (setting [4]) and in assay [2] (setting [5]) were 2 nM and 100 nM, respectively. Also, the “JAK3 PKi” value at JAK3 is given as 9.8.
